In PMC9564337, “Development of a Neurotensin-Derived ^68Ga-Labeled PET Ligand with High In Vivo Stability for Imaging of NTS1 Receptor-Expressing Tumors” (Cancers, 2022):
Where two headings read alike, the source gives them in different places. Residues, ends and D or L forms follow the SMILES beside them.

Assays:
hNTS1R = biological target: T1, hNTS1R (Homo sapiens, UniProt P30989); experiment: radioligand competition binding with [3H]UR-MK300 at intact HT-29 cells
T1 construct: intact HT-29 colon carcinoma cells expressing the hNTS1R; host or cells: HT-29 human colon carcinoma cells
T1 sequence (P30989 whole entry): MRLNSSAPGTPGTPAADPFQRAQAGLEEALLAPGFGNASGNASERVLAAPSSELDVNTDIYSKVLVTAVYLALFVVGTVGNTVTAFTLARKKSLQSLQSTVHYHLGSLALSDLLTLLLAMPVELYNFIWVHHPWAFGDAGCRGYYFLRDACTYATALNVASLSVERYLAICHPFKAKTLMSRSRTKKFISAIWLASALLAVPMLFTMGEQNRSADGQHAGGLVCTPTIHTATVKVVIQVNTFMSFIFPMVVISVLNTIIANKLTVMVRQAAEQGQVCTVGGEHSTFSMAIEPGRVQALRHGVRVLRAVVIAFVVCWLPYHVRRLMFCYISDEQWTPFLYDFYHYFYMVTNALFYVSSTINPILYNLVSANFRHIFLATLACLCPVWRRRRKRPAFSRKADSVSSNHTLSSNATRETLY
From the text: Specific binding data (obtained by subtracting unspecific binding from total binding) were normalized (100% = specifically bound radioligand in the absence of competitor) and plotted over log(concentration of competitor) followed by a four-parameter logistic fit (SigmaPlot 12.5, Systat Software, San José, CA, USA) (note: in the case of 40, the lower curve plateau of the sigmoidal fit was constrained to >0). […] The Ki values from individual experiments were transformed to pKi values, followed by the calculation of mean pKi values ± SD.

in vitro = in vitro ADME; details: human, plasma; for remaining at 1 h, 100 µM: pH 7.4, % Intact Peptide in Plasma after 1 h; for remaining at 6 h, 100 µM: pH 7.4, % Intact Peptide in Plasma after 6 h; for remaining at 24 h, 100 µM: pH 7.4, % Intact Peptide in Plasma after 24 h; for remaining at 48 h, 100 µM: pH 7.4, % Intact Peptide in Plasma after 48 h
Procedure: The concentration of the peptides in plasma/PBS (1:2 v/v) was 80 and 4 μM (recovery determination) or 100 μM (stability tests). Data analysis was based on UV detection at 220 nm (8, 9, 11, 12, 14-18, 21-23, 38-49, and 54-57) or fluorescence detection at 275/305 nm (19 and 20). Reference samples, representing 100% recovery, were prepared in duplicate (8, 9, 11, 14-16, and 19-21) or quadruplicate (12, 17, 18, 22, 23, 38-49, and 54-57). Recovery ratios were obtained by dividing the recovery of the peptide by the recovery of IS for each individual sample (n = 3-5). The obtained recoveries and the recovery ratios are summarized in Table S2, Supplementary Materials. […] Instead, the recovery ratios determined for the previously reported, structurally closely related peptide […] [40] were used for calculating the amount of remaining intact peptide in plasma.

hNTS2R = hNTS2R (Homo sapiens, UniProt O95665); experiment: radioligand competition binding with [3H]UR-MK300 at intact HEK293T-hNTS2R cells; details: [3H]UR-MK300 c = 10 nM
Sequence of hNTS2R (O95665 whole entry): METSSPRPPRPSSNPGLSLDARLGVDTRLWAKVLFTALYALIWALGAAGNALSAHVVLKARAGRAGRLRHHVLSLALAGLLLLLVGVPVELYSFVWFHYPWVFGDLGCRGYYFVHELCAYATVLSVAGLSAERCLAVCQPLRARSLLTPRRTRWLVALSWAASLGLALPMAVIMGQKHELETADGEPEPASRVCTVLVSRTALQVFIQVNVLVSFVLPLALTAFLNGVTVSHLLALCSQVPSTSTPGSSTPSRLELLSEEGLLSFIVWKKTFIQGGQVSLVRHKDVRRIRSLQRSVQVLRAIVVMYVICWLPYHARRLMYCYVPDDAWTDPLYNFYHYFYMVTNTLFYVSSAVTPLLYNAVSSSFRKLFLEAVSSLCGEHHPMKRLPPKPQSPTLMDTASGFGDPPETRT
Procedure: Two days prior to the experiment, white 96-well plates with clear bottoms (Costar, catalog no. 3610) were treated with poly-D-lysine hydrobromide (Sigma-Aldrich) for 10 min. The wells were washed with H2O and the plates were dried on air at rt overnight. […] After removal of the glutaraldehyde solution, the wells were washed twelve times with H2O and two times with culture medium (150–300 µL). […] On the day of the experiment, the culture medium was carefully removed using a multi-channel pipette (Transferpette S-12, Brand, Wertheim, Germany) and the cells were washed once with Dulbecco’s phosphate-buffered saline (D-PBS) containing Ca^2+ and Mg^2+ (1.8 mM CaCl2, 2.68 mM KCl, 1.47 mM KH2PO4, 3.98 mM MgSO4, 136.9 mM NaCl and 8.06 mM Na2HPO4) (200 μL, rt) followed by the careful pre-filling of the wells with 180 µL (total binding) or 160 µL (unspecific and competition binding) of D-PBS, supplemented with 1% BSA and 100 μg/mL bacitracin (Serva, Heidelberg, Germany) (in the following referred to as binding buffer). To determine total binding, 20 µL of a solution of the radioligand in binding buffer (10-fold concentrated compared to the final concentration) were added. […] To determine the displacing effect of a compound of interest, 20 µL of a solution of the respective compound in binding buffer (10-fold concentrated) and 20 µL of a 10-fold concentrated solution of the radioligand in binding buffer were added. During the incubation period of 2 h at 23 °C, the plates were gently shaken. […] The plates were sealed with a transparent sealing tape (permanent seal for microplates, PerkinElmer, product no. 1450–461) and turned upside down several times to achieve complete mixing. Prior to the measurement of the radioactivity with a MicroBeta2 plate counter (PerkinElmer), the plates were kept in the dark for at least 1 h. All experiments were performed in triplicate.

[1] = [3H]UR-MK300 c = 1 nM, HT-29 cells, 23 °C, read-out: Ki [nM] NTS1R (converted)
[2] = read-out: Ki [nM] NTS2R (converted)
[3] = read-out: pKi ± SD NTS2R (converted)
[4] = [3H]UR-MK300 c = 1 nM, HT-29 cells, 23 °C, read-out: pKi ± SD NTS1R (converted)

Row | SMILES | NTS1R Selectivity (Ratio Ki (NTS2R)/Ki (NTS1R)) (hNTS1R) | Ki (hNTS1R; [1]) | remaining at 1 h, 100 µM (in vitro) | remaining at 6 h, 100 µM (in vitro) | remaining at 24 h, 100 µM (in vitro) | remaining at 48 h, 100 µM (in vitro) | Ki (hNTS2R; [2]) | Ki (hNTS2R; [3]) | Ki (hNTS1R; [4]) | lower NTS1R affinity compared to 56 (hNTS1R; 57 versus 56) | pKi ± SD NTS1R (hNTS1R; [3H]UR-MK300 c = 1 nM, HT-29 cells, 23 °C)
1 | CN[C@@H](CCCNC(=N)N)C(=O)N[C@@H](CCCNC(=N)NC(=O)NCCCCN)C(=O)N1CCC[C@H]1C(=O)N[C@@H](Cc1ccc(O)cc1)C(=O)N[C@H](C(=O)N[C@@H](CC(C)C)C(=O)O)C(C)(C)C [Compound 8] | 4.2 | 5.3 nM | > 99% | > 99% | > 99% | > 99% | 22 nM | 20.9 nM |  |  | 
2 | CC(C)C[C@H](NC(=O)[C@@H](NC(=O)[C@H](Cc1ccc(O)cc1)NC(=O)[C@@H]1CCCN1C(=O)[C@H](CCCNC(=N)NC(=O)NCCCCN)N(C)C(=O)[C@@H](N)CCCNC(=N)N)C(C)(C)C)C(=O)O [Compound 11] | 2.1 | 13 nM | > 99% | > 99% | > 99% | > 99% | 27 nM |  |  |  | 
3 | CN[C@@H](CCCNC(=N)N)C(=O)N[C@@H](CCCNC(=N)NC(=O)NCCCCNC(=O)CN1CCN(CC(=O)O)CCN(CC(=O)O)CCN(CC(=O)O)CC1)C(=O)N1CCC[C@H]1C(=O)N[C@@H](Cc1ccc(O)cc1)C(=O)N[C@H](C(=O)N[C@@H](CC(C)C)C(=O)O)C(C)(C)C [Compound 14] | 2.8 | 28 nM |  |  |  |  | 79 nM |  | 21.9 nM |  | 
4 | CCC(CC)(NC(=O)[C@H](Cc1ccc(O)cc1)NC(=O)[C@@H]1CCCN1C(=O)[C@H](CCCNC(=N)N)NC(=O)[C@H](CCCNC(=N)N)NC)C(=O)N[C@@H](CC(C)C)C(=O)O [Compound 39] |  | > 1000 nM | 93 ± 1% | 94 ± 1% | 93 ± 1% | 93 ± 1% |  |  | > 1000 nM |  | 
5 | CN[C@@H](CCCNC(=N)N)C(=O)N[C@@H](CCCNC(=N)N)C(=O)N1CCC[C@H]1C(=O)N[C@@H](Cc1ccc(O)cc1)C(=O)N[C@H](C(=O)N[C@@H](CC(C)C)C(=O)O)C1CC1 [Compound 40] |  | 9.6 nM | 88 ± 1% | 58 ± 1% | < 1% | < 1% |  |  | 8.91 nM |  | 
6 | CN[C@@H](CCCNC(=N)N)C(=O)N[C@@H](CCCNC(=N)N)C(=O)N1CCC[C@H]1C(=O)N[C@@H](Cc1ccc(O)cc1)C(=O)N[C@@H](CC1CC1)C(=O)N[C@@H](CC(C)C)C(=O)O [Compound 41] |  | 5 nM | 92 ± 1% | 74 ± 1% | 15 ± 1% | < 1% |  |  |  |  | 
7 | CN[C@@H](CCCNC(=N)N)C(=O)N[C@@H](CCCNC(=N)N)C(=O)N1CCC[C@H]1C(=O)N[C@@H](Cc1ccc(O)cc1)C(=O)N[C@H](C(=O)N[C@@H](CC(C)C)C(=O)O)C1CCC1 [Compound 42] |  | 1.1 nM | 91 ± 1% | 79 ± 1% | 32 ± 1% | < 1% |  |  | 1.05 nM |  | 
8 | CN[C@@H](CCCNC(=N)N)C(=O)N[C@@H](CCCNC(=N)N)C(=O)N1CCC[C@H]1C(=O)N[C@@H](Cc1ccc(O)cc1)C(=O)N[C@H](C(=O)N[C@@H](CC(C)C)C(=O)O)C1CCCC1 [Compound 43] |  | 1.2 nM | 99 ± 1% | 95 ± 1% | 78 ± 1% | 58 ± 1% |  |  |  |  | 
9 | CN[C@@H](CCCNC(=N)N)C(=O)N[C@@H](CCCNC(=N)N)C(=O)N1CCC[C@H]1C(=O)N[C@@H](Cc1ccc(O)cc1)C(=O)N[C@@](C)(CC(C)C)C(=O)N[C@@H](CC(C)C)C(=O)O [Compound 44] (HELM PEPTIDE1{[meR].R.P.Y.[CC(C)C[C@](C)(N[*:1])C(=O)[*:2]].L}$$$$V2.0) |  | > 1000 nM | 94 ± 1% | 91 ± 4% | 91 ± 1% | 87 ± 1% |  |  | > 1000 nM |  | 
10 | CC[C@](C)(NC(=O)[C@H](Cc1ccc(O)cc1)NC(=O)[C@@H]1CCCN1C(=O)[C@H](CCCNC(=N)N)NC(=O)[C@H](CCCNC(=N)N)NC)C(=O)N[C@@H](CC(C)C)C(=O)O [Compound 45] |  | > 1000 nM | 93 ± 1% | 92 ± 1% | 86 ± 1% | 77 ± 1% |  |  | > 1000 nM |  | 
11 | CC[C@H](C)[C@H](NC(=O)[C@H](Cc1ccc(O)cc1)NC(=O)[C@@H]1CCCN1C(=O)[C@H](CCCNC(=N)N)NC(=O)[C@H](CCCNC(=N)N)NC)C(=O)N[C@@H](CC1CC1)C(=O)O [Compound 46] |  | 2.6 nM | 25 ± 2% | < 1% | < 1% | < 1% |  |  | 2.34 nM |  | 
12 | CN[C@@H](CCCNC(N)=NC(=O)NCCCCN)C(=O)N[C@@H](CCCNC(=N)N)C(=O)N1CCC[C@H]1C(=O)N[C@H](C(=O)N[C@H](C(=O)N[C@@H](CC(C)C)C(=O)O)C(C)(C)C)C(C)(C)c1ccc(O)cc1 [Compound 52] | 1.2 | 5.4 nM |  |  |  |  | 6.5 nM | 6.03 nM | 5.01 nM |  | 
13 | CN[C@@H](CCCNC(N)=NC(=O)NCCCCN)C(=O)N[C@@H](CCCNC(=N)N)C(=O)N1CCC[C@H]1C(=O)N[C@@H](C(=O)N[C@H](C(=O)N[C@@H](CC(C)C)C(=O)O)C(C)(C)C)C(C)(C)c1ccc(O)cc1 [Compound 53] |  |  |  |  |  |  | 450 nM | 398 nM |  |  | 
14 | CN[C@@H](CCCNC(N)=NC(=O)NCCCCNC(=O)CN1CCN(CC(=O)O)CCN(CC(=O)O)CCN(CC(=O)O)CC1)C(=O)N[C@@H](CCCNC(=N)N)C(=O)N1CCC[C@H]1C(=O)N[C@H](C(=O)N[C@H](C(=O)N[C@@H](CC(C)C)C(=O)O)C(C)(C)C)C(C)(C)c1ccc(O)cc1 [Compound 57] |  | 21 nM | > 99% | > 99% | 68 ± 1% | < 1% |  |  |  | 18 fold | 7.67 ± 0.04
